The values below come from publication PMC13298843, “Substituent size versus metal binding of inhibitors with variants of influenza endonuclease^” (Journal of inorganic biochemistry, 2025).

The format of series [1] is physicochemical. The settings on record: at 1000 μM in DSF buffer with 4 % DMSO.
Series [2] concerns the target WT enzyme (PAN endonuclease). The arrangement: method as in PMID 31536340. The settings on record: FRET-based assay, cited from earlier work; for pIC50: at edge of limit of detection, read-out: IC50 values; for IC50: read-out: pIC50 values (converted).
The test system of series [3] is influenza. The settings on record: oral monotherapy taken at time of diagnosis; cited from earlier work.

pIC50: −log10 of the molar value. Like-named read-outs stand apart in the source and are kept apart here.

What is called pIC50 is −log10 of the IC50, conventionally taken in molar units.

Turning to `O=C(O)c1[nH]c(-c2ccccc2Oc2ccccc2)cc(=O)c1O` [Compound 4], the solubility entry in series [1] is “poorly soluble”. In series [2], the pIC50 is ~8.52.

As to `Cc1ccccc1-c1cc(=O)c(O)c(C(=O)O)[nH]1` [Compound 1], in series [2], the IC50 is < 2 nM.

Take `COC(=O)OCOc1c2n(ccc1=O)N([C@@H]1c3ccccc3SCc3c1ccc(F)c3F)[C@@H]1COCCN1C2=O` [BXM, Baloxavir marboxil]: in series [3], the “time to reduce fever (average)” value is 24 h.

Regarding `CCc1ccccc1-c1cc(=O)c(O)c(C(=O)O)[nH]1` [Compound 2], the IC50 in series [2] was < 2 nM.

As for `CSc1ccccc1-c1cc(=O)c(O)c(C(=O)O)[nH]1` [Compound 3], the negative-log IC50 (pIC50) in series [2] is ~8.52.
